This passage reports T/C results from PubChem BioAssay AID194 (DTP/NCI, 2004).

This test concerns BDF1 mice, B16 melanoma s.c., survival/tumor T/C. Kind of test: NCI In Vivo Anticancer Drug Screen. Data for tumor model B16 Melanoma (subcutaneous) in B6D2F1 (BDF1) mice. The protocol:
The antitumor activity of compounds was measured in mice bearing transplantable tumors. Survival or tumor size were measured and the results are expressed as the measurement made in the treated group (T) divided by the measurement made in the vehicle treated control group (C). The tumor model used in this assay is B16 Melanoma (subcutaneous) in B6D2F1 (BDF1) mice

The mark [1] stands for this setting: endpoint: median survival time, dose: 2.0 mg/kg/injection, schedule: Q02DX009 (ip), vehicle: saline, higher = longer survival.
[2] abbreviates: endpoint: median survival time, dose: 4.0 mg/kg/injection, schedule: Q01DX009 (ip), vehicle: saline, higher = longer survival.
Where [3] appears, read: endpoint: median survival time, dose: 8.0 mg/kg/injection, schedule: Q01DX009 (ip), vehicle: saline, higher = longer survival.
The mark [4] stands for this setting: endpoint: median survival time, dose: 8.0 mg/kg/injection, schedule: Q02DX009 (ip), vehicle: saline, higher = longer survival.
The mark [5] stands for this setting: endpoint: median survival time, dose: 16.0 mg/kg/injection, schedule: Q01DX009 (ip), vehicle: saline, higher = longer survival.
The mark [6] stands for this setting: endpoint: median survival time, dose: 2.0 mg/kg/injection, schedule: Q01DX009 (ip), vehicle: saline, higher = longer survival.

The structures appear in SMILES notation. Values joined by “and” are separate entries in the source; they are usually repeats but may differ in a detail not shown here. Equal entries are not always repeated. Results filed as inconclusive are left out.

For the molecule `Cc1ncc([N+](=O)[O-])n1CCO`, the T/C (endpoint: median survival time, dose: 37.5 mg/kg/injection, schedule: Q01DX009 (ip), vehicle: Klucel (hydroxypropylcellulose) (HPC), higher = longer survival) was 100 % of control; the T/C (endpoint: median survival time, dose: 37.5 mg/kg/injection, schedule: Q04DX003 (ip), vehicle: Klucel (hydroxypropylcellulose) (HPC), higher = longer survival) was 100 % of control; the T/C (endpoint: median survival time, dose: 75.0 mg/kg/injection, schedule: Q01DX009 (ip), vehicle: Klucel (hydroxypropylcellulose) (HPC), higher = longer survival) is 100 % of control; the T/C (endpoint: median survival time, dose: 75.0 mg/kg/injection, schedule: Q04DX003 (ip), vehicle: Klucel (hydroxypropylcellulose) (HPC), higher = longer survival) is 111 % of control; the T/C (endpoint: median survival time, dose: 150.0 mg/kg/injection, schedule: Q01DX009 (ip), vehicle: Klucel (hydroxypropylcellulose) (HPC), higher = longer survival) was 108 % of control; the T/C (endpoint: median survival time, dose: 150.0 mg/kg/injection, schedule: Q04DX003 (ip), vehicle: Klucel (hydroxypropylcellulose) (HPC), higher = longer survival) was 111 % of control. Moreover, the T/C is 93 % of control (endpoint: median survival time, dose: 300.0 mg/kg/injection, schedule: Q01DX009 (ip), vehicle: Klucel (hydroxypropylcellulose) (HPC), higher = longer survival); 112 % of control (endpoint: median survival time, dose: 300.0 mg/kg/injection, schedule: Q04DX003 (ip), vehicle: Klucel (hydroxypropylcellulose) (HPC), higher = longer survival); 121 % of control (endpoint: median survival time, dose: 600.0 mg/kg/injection, schedule: Q04DX003 (ip), vehicle: Klucel (hydroxypropylcellulose) (HPC), higher = longer survival).
Regarding `C[CH2][Ge]1([CH2]C)[CH2]CC2(CCN(CCCN(C)C)C2)C[CH2]1`, the T/C is 96 % of control under setting [1]; 98 % of control under setting [2]; 110 % of control (endpoint: median survival time, dose: 4.0 mg/kg/injection, schedule: Q02DX009 (ip), vehicle: saline, higher = longer survival); 101 % of control under setting [3]; 102 % of control under setting [4]; 98 % of control under setting [5]. Further, the T/C reads like this: (endpoint: median survival time, dose: 16.0 mg/kg/injection, schedule: Q02DX009 (ip), vehicle: saline, higher = longer survival) 111 % of control; (endpoint: median survival time, dose: 32.0 mg/kg/injection, schedule: Q01DX009 (ip), vehicle: saline, higher = longer survival) 112 % of control; (endpoint: median survival time, dose: 32.0 mg/kg/injection, schedule: Q02DX009 (ip), vehicle: saline, higher = longer survival) 109 % of control; (endpoint: median survival time, dose: 64.0 mg/kg/injection, schedule: Q01DX009 (ip), vehicle: saline, higher = longer survival) 97 % of control.
In the case of `S=P(N1CC1)(N1CC1)N1CC1`, the T/C reads like this: (endpoint: median survival time, dose: 1.0 mg/kg/injection, schedule: Q01DX001 (oral), vehicle: saline, higher = longer survival) 97 % of control; (endpoint: median survival time, dose: 1.0 mg/kg/injection, schedule: Q02DX009 (ip), vehicle: saline, higher = longer survival) 109 % of control and 113 % of control; (endpoint: median survival time, dose: 2.0 mg/kg/injection, schedule: Q01DX001 (oral), vehicle: saline, higher = longer survival) 89 % of control; under setting [6], 106 % of control; under setting [1], 99 % of control and 202 % of control; (endpoint: median survival time, dose: 4.0 mg/kg/injection, schedule: Q01DX001 (oral), vehicle: saline, higher = longer survival) 98 % of control. In addition, the T/C was 100 % of control (endpoint: median survival time, dose: 8.0 mg/kg/injection, schedule: Q01DX001 (oral), vehicle: saline, higher = longer survival); 98 % of control under setting [4]; 105 % of control (endpoint: median survival time, dose: 12.5 mg/kg/injection, schedule: Q01DX001 (ip), vehicle: saline, higher = longer survival); 100 % of control (endpoint: median survival time, dose: 16.0 mg/kg/injection, schedule: Q01DX001 (oral), vehicle: saline, higher = longer survival).
Take `CC1(C)CC(O)(C(Cl)c2ccccc2)C(=O)c2ccccc21` (stereo unspecified): the T/C runs as follows: (endpoint: median survival time, dose: 88.0 mg/kg/injection, schedule: Q01DX009 (ip), vehicle: distilled water + Tween-80, higher = longer survival) 96 % of control; (endpoint: median survival time, dose: 133.0 mg/kg/injection, schedule: Q01DX009 (ip), vehicle: distilled water + Tween-80, higher = longer survival) 97 % of control; (endpoint: median survival time, dose: 200.0 mg/kg/injection, schedule: Q01DX009 (ip), vehicle: distilled water + Tween-80, higher = longer survival) 93 % of control; (endpoint: median survival time, dose: 300.0 mg/kg/injection, schedule: Q01DX009 (ip), vehicle: distilled water + Tween-80, higher = longer survival) 89 % of control; (endpoint: median tumor weight (est.), dose: 133.0 mg/kg/injection, schedule: Q01DX009 (ip), vehicle: distilled water + Tween-80, higher = larger tumour) 71 % of control; (endpoint: median tumor weight (est.), dose: 200.0 mg/kg/injection, schedule: Q01DX009 (ip), vehicle: distilled water + Tween-80, higher = larger tumour) 106 % of control. Moreover, the T/C (endpoint: median tumor weight (est.), dose: 300.0 mg/kg/injection, schedule: Q01DX009 (ip), vehicle: distilled water + Tween-80, higher = larger tumour) was 91 % of control.
On to `Nc1nc([Se])c2ncn(C3OC(CO)C(O)C3O)c2n1` (stereo unspecified), for which the T/C was 108 % of control (endpoint: median survival time, dose: 1.0 mg/kg/injection, schedule: Q01DX009 (ip), vehicle: saline, higher = longer survival); 98 % of control and 121 % of control under setting [6]; 121 % of control under setting [2]; 108 % of control under setting [3]; 111 % of control under setting [5].
